Experiments:
Format in all cases: cell-based, human
[1] = system: APP-FL, APP-C99 and APP-C83; test: Western blot analysis of APP processing in H4-APP-FL cells; details: for protein levels of APP-FL / increase in the ratio of APP-C99 to APP-FL / increase in the ratio of APP-C83 to APP-FL: siRNA 48 hours, DAPT 250 nM
Procedure: (§1) We employed naïve H4 human neuroglioma (H4) cells and H4 cells stably-transfected to express either the APP-FL, or APP-C99. Peptide APP-C99 is the product of β-secretase, which, therefore, contains α- and γ-, but not β-cleavage sites. This cell line provides a valid system to assess whether any effects on APP processing is dependent on γ-secretase-mediated APP processing and independent of β-secretase-mediated APP processing. All cell lines were cultured in DMEM (high glucose) containing 9% heat-inactivated fetal calf serum, 100 units/ml penicillin, 100 μg/ml streptomycin, and 2 mM L-glutamine. Stably transfected H4 cells were additionally supplemented with 200 μg/ml G418.
Small interfering RNA (siRNA) duplexes were designed and obtained from Dharmacon Research, Inc. (Lafayette, CO 80026) against human APBA1, the gene encoding X11α (5′-GGATGCTCAGCTGATTGCA-3′; SEQ ID NO:2), APBA2, the gene encoding X11β (5′-GGTGAAGCTCAACATTGTC-3′; SEQ ID NO:3). Scrambled siRNA (5′-[…]-3α; SEQ ID NO:4) (29) was used as the control siRNA. siRNAs were transfected into cells by using electroporation (AMAXA, Gaithersburg, Md.). We mixed 1 million cells, 100 μl AMAXA electroporation transfection solution and 10 μl 20 μM siRNA together, then we employed C-9 program in the AMAXA electroporation device for the cell transfection. The transfected cells then were placed in one of the six-well plate containing 1.5 ml cell culture media. The cells were harvested 48 hours after siRNA treatments. DAPT (250 nM, 18 hours treatment time), a γ-secretase inhibitor, was employed in the experiments as a positive control.
(§2) Cell pellets were detergent-extracted on ice using immunoprecipitation buffer (10 mM Tris-HCl, pH 7.4, 150 mM NaCl, 2 mM EDTA, 0.5% Nonidet P-40) plus protease inhibitors (1 μg/ml aprotinin, 1 μg/ml leupeptin, 1 μg/ml pepstatin A). The lysates were collected, centrifuged at 12,000 rpm for 10 min, and quantified for total proteins by the BCA protein assay kit (Pierce, Rockford, Ill.).
Western blot analysis was performed as described by Xie et al. (30). Briefly, 40 μg of total protein of each sample was subjected to SDS-polyacrylamide gel electrophoresis using 4-20% gradient Tris/glycine gels under reducing conditions (Invitrogen, Carlsbad, Calif.). Next, proteins were transferred to a polyvinylidene difluoride membrane (Bio-Rad, Hercules, Calif.) using a semi-dry electrotransfer system (Amersham Biosciences, San Francisco, Calif.). Nonspecific proteins were blocked using 5% non-fat dry milk in TBST for 1.5 h. Blots were then incubated with a primary antibody, followed by a secondary antibody (horseradish peroxidase-conjugated anti-rabbit antibody 1:10,000; Pierce, Rockford, Ill.). Blots were washed with 1× TBST for 30 min between steps. Antibody H-265 (1:200, Santa Cruz Biotechnology, Santa Cruz, Calif.) was used to recognize X11α (105 kDa), antibody N-20 (1:100, Santa Cruz Biotechnology, Santa Cruz, Calif.) was used to detect X11β (135 kDa). Antibody A8717 (1:1,000, Sigma, St. Louis, Mo.) was used to visualize APP-FL (110 kDa), […] in the Western blot analysis. The intensity of signals was analyzed using an image program (NIH Image 1.62). We quantified the Western blots as follows. We used the levels of β-actin to normalize the levels of X11α, X11β, APP-FL and APP-CTF (i.e., determining the ratio of X11α amount to β-actin amount) to control for loading differences in total protein amounts. We present the changes in the protein levels of X11α, X11β, APP-FL, APP-C99 and APP-C83 in the cells treated with APBA1 or APBA2 siRNA as the percentage of those in the cells treated with control siRNA.
We next assessed the effects of RNAi-mediated silencing of APBA1 on APP processing in H4-APP-FL cells by measuring protein levels of APP-FL, APP-C99 and APP-C83 following APBA1 siRNA treatment. […]

[2] = system: Aβ40; test: Sandwich ELISA of secreted Aβ in conditioned media of H4-APP-FL cells
Procedure: as §1
Small interfering RNA (siRNA) duplexes were designed and obtained from Dharmacon Research, Inc. (Lafayette, CO 80026) against human APBA1, the gene encoding X11α (5′-GGATGCTCAGCTGATTGCA-3′; SEQ ID NO:2), APBA2, the gene encoding X11β (5′-GGTGAAGCTCAACATTGTC-3′; SEQ ID NO:3). Scrambled siRNA (5′-[…]-3α; SEQ ID NO:4) (29) was used as the control siRNA. siRNAs were transfected into cells by using electroporation (AMAXA, Gaithersburg, Md.). […]
(§3) Following the treatment with saline, electroporation, control siRNA, APBA1 siRNA or APBA2 siRNA, conditioned media was collected, and secreted Aβ was measured by a Sandwich ELISA assay as described by Xie et al. (30). […] Plates were then developed with TMB reagent and well absorbance measured at 450 nm. Aβ levels in test samples were determined by comparison with signal from unconditioned media spiked with known quantities of Aβ40 and Aβ42.
Next, we measured Aβ levels in the conditioned media, 48 hours after treatment with control siRNA, APBA1 siRNA or γ-secretase inhibitor DAPT. Since Aβ42 was too low to be detected in many samples, we only present the changes in Aβ40 production from these experiments.
Next, we measured Aβ levels in the conditioned media 48 hours following treatments with control siRNA, APBA2 siRNA or γ-secretase inhibitor DAPT.

[3] = system: APP-FL, APP-C99 and APP-C83; test: Western blot analysis of APP processing in H4-APP-C99 cells; details: data not shown
Procedure: as §1, with “G418. […]” for “G418.”
as §2
Western blot analysis was performed as described by Xie et al. (30). […] The intensity of signals was analyzed using an image program (NIH Image 1.62). We quantified the Western blots as follows. […]
We next assessed the effects of RNAi-mediated silencing of APBA1 on processing of APP-C99. […]

[4] = system: Aβ40; test: Sandwich ELISA of secreted Aβ in conditioned media of H4-APP-C99 cells; details: data not shown
Procedure: as §1, with “G418. […]” for “G418.”
as §3
We next measured Aβ levels in the conditioned media 48 hours after treatment with either control siRNA or APBA1 siRNA in the H4-APP-C99 cells. […]

Molecule | effect on APP processing as compared to saline treatment ([1]; data not shown) | effect on Aβ levels as compared to saline treatment ([2]; data not shown) | effect on APP processing as compared to saline treatment [3] | effect on Aβ levels as compared to saline treatment [4] | protein levels of APP-FL ([1]; APBA1 experiment (FIG. 1A), vs control siRNA) | protein levels of APP-FL ([1]; APBA2 experiment (FIG. 2A), vs control siRNA) | increase in the ratio of APP-C99 to APP-FL ([1]; APBA2 experiment, FIG. 2C, vs control treatment) [%] | increase in the ratio of APP-C83 to APP-FL ([1]; APBA2 experiment, FIG. 2D, vs control treatment) [%] | increase in the ratio of APP-C99 to APP-FL ([1]; FIG. 1C, vs control siRNA, normalized to β-actin) [%] | increase in the ratio of APP-C83 to APP-FL ([1]; FIG. 1D, vs control siRNA, normalized to β-actin) [%] | Aβ levels (Aβ40) in conditioned media ([2]; FIG. 1E, 48 hours after treatment, control siRNA treatment 116 pg/ml) [pg/mL] | Aβ production (Aβ40) in conditioned media ([2]; FIG. 2E, 48 hours following treatment, control siRNA 109 pg/ml) [pg/mL]
control siRNA: Scrambled siRNA (5′-AAATGTGTGTACGTCTCCTCC-3; SEQ ID NO:4) used as the control siRNA (listed as DNA, chemistry not given here) | did not affect APP processing or alter Aβ levels | did not affect APP processing or alter Aβ levels | did not affect APP processing or alter Aβ levels | did not affect APP processing or alter Aβ levels | – | – | – | – | – | – | – | –
C[C@H](NC(=O)Cc1cc(F)cc(F)c1)C(=O)N[C@H](C(=O)OC(C)(C)C)c1ccccc1 [DAPT] | – | – | – | – | no significant differences | no significant difference | 270 | 245 | 310 | 250 | 70 | 48

— patent US20060172964A1, “Methods for reducing amyloid beta levels” (priority 2005, published 2006)
